These results are taken from patent publication US12269859B2, “Synthetic immune receptors and methods of use thereof” (Angeles Therapeutics, Inc., priority 2016, dated 2025).

Data set [1] relates to RAJI cells. Nature of the data set: GLuc cytotoxicity assay, RAJI-GLuc cells. The data set is classed as cell-based, human. The method, then:
(D) Assay for Cytotoxic Activity in vitro and in vivo: The uninfected T cells or those expressing a control vector or SIR are cocultured with the target cell lines expressing a non-secretory form of a luciferase (such as GLuc, NLuc, Turboluc 16 etc.) for 4-96 hours and induction of cell lysis examined by measuring the luciferase activity as described in PCT/US17/52344. Alternate methods for measurement of cytotoxic activity (e.g., ^51Cr release assay or LDH release assay) can be used as well. The activity of T cells expressing a SIR can be also assayed in vivo using appropriate xenograft models in immunodeficient mice.
Cell death assay. To measure cell death, a novel assay based on ectopic cytosolic expression of Gluc or NLuc was utilized as described in PCT/US17/52344 “A Non-Radioactive Cytotoxicity Assay”. The method involves expression of a reporter in a target cells in a manner so that it is preferentially retained within the healthy cells but is either released from dead and dying cells or whose activity can be preferentially measured in dead and dying cells. The preferred reporter for this assay are 1) non-secreted forms of luciferases from the copepods, such as Gaussia princeps, Pleuromamma abdominalis, Metridia pacifica, Metridia curticauda, Metridia asymmetrica, Metridia okhotensis, Metridia longa, Lucicutia ovaliformis, Heterorhabdus tanneri, and Pleuromamma scutullata 2) engineered luciferase reporters from deep sea shrimp, such as NanoLuc. The sequence of several such reporter vectors is provided in SEQ ID NO: 881 to SEQ ID NO: 887. The above vectors were used to generate retrovirus and lentiviruses which in turn were used to generate polyclonal population of several target cell lines stably expressing GLuc, NLuc, TurboLuc or MLuc7 following selection with appropriate antibiotics. Unless indicated otherwise, the target cells stably expressing the different luciferases (GLuc, Nluc, MLuc7 or TurboLuc16) were plated in triplicate in a 384 well plate in the media used for growing the target cells. Target cells which grow in suspension were generally plated at a concentration of 2-3×10^4 per well, while target cells which grow as adherent monolayers were plated at a concentration of 1-2×10^4 per well. Unless indicated otherwise, the target cells were cocultured with the genetically modified T cells (i.e. those expressing SIR or CAR) at an Effector:Target (E:T) ratio varying from 1:1 to 10:1 for 4 hours to 96 hours. In the case target cells grow as adherent cells (e.g., HeLa cells), they were allowed to attach to the bottom of the wells overnight before the T cells were added. T cells mediated induction of lysis of target cells was assayed by increase of luciferase activity as measured by BioTek synergy plate reader by directly injecting 0.5×CTZ assay buffer containing native coeloentrazine (Nanaolight).
CTZ assay. A 100× stock solution of native coelenterazine (CTZ; Nanolight, cat #303) was made by dissolving 1 mg of lyophilized CT powder in 1.1 ml of 100% Methanol supplemented with 30 μl of 6N HCl to avoid oxidation of CTZ with time. To make CTZ assay buffer, the 100× stock solution of CTZ was diluted to 0.5× concentration in PBS. Unless indicated otherwise, a total volume of 15 μl of the CTZ assay buffer (as prepared above) was added to each well of a 384-well white plate (Greiner, 384 well white plate cat #781075) containing cells expressing the non-secretory form of the luciferase in approximately 50-60 μl volume of medium and plates were read for luminescence in endpoint mode using BioTek synergyH4 plate reader. For 96 well plates, cells were plated in 200 μl of media and approximately 50 μl of 0.5×CTZ assay buffer was added. Unless indicated otherwise, the 0.5×CTZ assay buffer was used for assaying the activity of GLuc, TurboLuc16, and MLuc7. The CTZ assay buffer (diluted to 0.125× concentration) was also used for measurement of NLuc activity in some experiments (see below).

For data set [2], the system named is target antigen-expressing cell line. Nature of the data set: Jurkat NFAT-GFP assay, coculture with target cell lines expressing the respective target antigen (summary Table 10A). The data set is classed as cell-based, human. More on the design: key: The signs +/−, +, 2+ etc. after the name of the cell lines indicate the relative degree of positivity on the Jurkat-NFAT-GFP assay as measured by the % GFP positive cells; +: relative degree of positivity on the Jurkat-NFAT-GFP assay as measured by the % GFP positive cells; 2+: relative degree of positivity on the Jurkat-NFAT-GFP assay as measured by the % GFP positive cells. The conditions noted are these: relative % GFP positive cells; for NFAT-GFP ASSAY Positive Cell lines: RAJI: SIR-expressing Jurkat-NFAT-GFP cells cocultured with RAJI; for NFAT-GFP ASSAY Positive Cell lines: NALM6: SIR-expressing Jurkat-NFAT-GFP cells cocultured with NALM6. The method, then: (B) Induction of NFAT promoter driven GFP expression. The control vector- and SIR-expressing Jurkat-NFAT-GFP cocultured for 4-24 hours with the target antigen-expressing cell line (described above) and their ability to bind to the target antigen is assayed by measuring induction of GFP expression using Flow Cytometry. Cellular supernatant is collected and assayed for the induction of cytokines (e.g., IL2).
Jurkat NFAT-GFP Assay For Synthetic Immune Receptors. The Jurkat-NFAT-GFP cells are engineered in such a way that the IL-2 promoter, which carries NFAT binding sites, is cloned upstream of the GFP gene. These cells have been used to study signaling via TCR and CAR. The different SIRs were stably expressed in Jurkat NFAT-GFP cells by lentiviral mediated gene transfer, followed by selection with puromycin. The SIR-expressing Jurkat-NFAT-GFP cells were cocultured with the target cells at E:T ratio of approximately 1:2 for approximately 4 hours to 18 hours. When the interaction between SIRs and their target antigen results in activation of the NFAT pathway, GFP expression is induced.
Induction of GFP expression by coculturing of Jurkat-NFAT-GFP cells expressing different SIR constructs and the different target cells was studied essentially as described previously (Wu, Roybal, Puchner, Onuffer, & Lim, 2015). GFP expression was monitored by FACS analysis. A few representative examples of this assay are shown in the FIG. 13A-B. In panel A, control Jurkat-NFAT-GFP cells or those expressing SIRs targeting CD19 (clone ID 051716-I08), MPL (Clone ID: 040716-A07) and BCMA (Clone ID: 011116-A07) were incubated with RAJI (top), HEL (middle) or U266 (bottom) cells, respectively. […] In panel B, Jurkat cells expressing SIR targeting CDH6 (Clone ID: 051716-J05), CD276 (Clone ID: 050516-Q06) and Her2/neu (Clone ID: 050516-I03) were incubated with SKOV3 (top) and […] (middle and bottom) cells, respectively. […] The Jurkat-NFAT-GFP cells were engineered to express different SIRs targeting other antigens and the experiment repeated upon coculture with the target cells expressing their respective target antigen. The Jurkat-NFAT-GFP (parental) cells were used as control. The names of different SIRs, their SEQ ID NOs, component antigen binding domains and TCR chains can be determined by reference to Tables 7A-7H. A SIR is considered positive in the assay in case the SIR expressing Jurkat-NFAT-GFP cells show greater % GFP positive cells when cultured with the target cell line as compared to parental Jurkat-NFAT-GFP cells. […] The signs +/−, +, 2+ etc. after the name of the cell lines indicate the relative degree of positivity on the Jurkat-NFAT-GFP assay as measured by the % GFP positive cells after culture of the SIR expressing Jurkat-NFAT-GFP cells with that cell line. […] In addition, great diversity of response against the same target cell line is observed with Jurkat cells expressing SIRs containing different antigen binding domains targeting the same antigen (e.g., SIRs having antigen binding domains derived form different CD19 antibodies) even when the SIRs share the same TCR chains and linkers. Finally, Jurkat cells expressing SIRs targeting different antigens (e.g. CD19 vs CD20) show a diversitiy of response when exposed to the same target cell line. Thus, a diverse immune response can be generated against a single target cell by combining SIRs with different TCR chains, linkers, antigen binding domains and target specificity. Table 10A also summarizes the results of GLuc based T cell cytotoxicity assay observed with different SIRs when exposed to their target cell lines. […]

“Also recorded” adds a separate entry of the source.

For `C[C@@H]1CC[C@@]2(OC1)O[C@H]1[C@@H](O)[C@H]3[C@@H]4CC[C@H]5C[C@@H](O[C@@H]6O[C@H](CO)[C@H](O[C@@H]7O[C@H](CO)[C@@H](O)[C@H](O[C@@H]8OC[C@@H](O)[C@H](O)[C@H]8O)[C@H]7O[C@@H]7O[C@H](CO)[C@H](O)[C@H](O[C@@H]8O[C@H](CO)[C@@H](O)[C@H](O)[C@H]8O)[C@H]7O)[C@H](O)[C@H]6O)[C@H](O)C[C@]5(C)[C@H]4CC[C@]3(C)[C@H]1[C@@H]2C` [digitonin, Digitonin, reference compound], in data set [1] (E:T 10:1, 4 hours), the “mean Gluc values” was 3869. In the case of “CD8SP-CD19Bu12-vL-Gly-Ser-Linker-CD19Bu12-vH-V5-[hTCRb-WT]-F-P2A-PAC [SEQ ID NO:1022]”, in data set [2], the “NFAT-GFP ASSAY Positive Cell lines: RAJI” value is given as “RAJI (+)”. Also, the “lysis of target cells by increase of GLuc activity (in words)” value in data set [1] (E:T 10:1, 4 hours) is “failed to induce lysis of RAJI cells”. On the same counts, the results for “CD8SP-CD20-2F2-vL-[canine-TCRb-opt]-F-P2A-CD20-2F2-vH-[canine-TCRa-opt]-F-F2A-PAC [SEQ ID NO:1113]” are “RAJI (+/−)” and “effective induction of target cell lysis”. Take “CD8SP-FMC63-scFv-V5-[TCRb-S57C-opt1]-F-P2A-SP-FMC63-scFv-MYC-[TCRa-T48C-opt1]-T2A-Pac [SEQ ID NO:910]”: in data set [2], the “NFAT-GFP ASSAY Positive Cell lines: RAJI” value is recorded as “RAJI (+/−)”. Still for that read-out and setting: under “CD8SP-FMC63-vL-G4Sx2-[hTCRa-S61R-opt]-F-F2A-FMC63-vH-G4Sx2-[hTCRb-R79G-opt]-F-P2A-PAC [SEQ ID NO:955]” stands “RAJI (+/−)”; under “CD8SP-FMC63-vL-Gly-Ser-Linker-FMC63-vH-Myc-[preTCRa-Del48]-F-F2A-PAC [SEQ ID NO:914]”, “RAJI (+)”. With “CD8SP-FMC63-vL-Gly-Ser-Linker-FMC63-vH-V5-[hTCRb-S57C-opt]-F-P2A-PAC [SEQ ID NO:912]”, the “NFAT-GFP ASSAY Positive Cell lines: RAJI” value in data set [2] is “RAJI (+/−)”. Moreover, in data set [1] (E:T 10:1, 4 hours), the “lysis of target cells by increase of GLuc activity (in words)” value is given as “failed to induce lysis of RAJI cells”. “CD8SP-FMC63-vL-Gly-Ser-Linker-FMC63-vH-V5-[hTCRb-S57C-opt]-F-P2A-SP-Myc-[hTCRa-T48C-opt]-F-F2A-PAC [SEQ ID NO:991]”: in data set [2], the “NFAT-GFP ASSAY Positive Cell lines: NALM6” value was “+” and the “NFAT-GFP ASSAY Positive Cell lines: RAJI” value was “+/−”. For the compound “CD8SP-FMC63-vL-Gly-Ser-Linker-FMC63-vH-V5-[hTCRb-WT]-F-P2A-PAC [SEQ ID NO:911]”, in data set [2], the “NFAT-GFP ASSAY Positive Cell lines: RAJI” value was “RAJI (+)”. The same measure, in the same setting: then “CD8SP-FMC63-vL-Myc2-[hTCRb-R79G-opt]-F-P2A-SP-FMC63-vH-Myc4-[hTCRa-S61R-opt]-F-F2A-PAC [SEQ ID NO:937]”, with “RAJI (+/−)”. Regarding “CD8SP-FMC63-vL-Myc-[hTCRa-T48C-opt1]-F-F2A-FMC63-VH-V5-[hTCRb-C57C-opt1]-F-P2A-PAC [SEQ ID NO:902]”, the “lysis of target cells by increase of GLuc activity (in words)” value in data set [1] (E:T 10:1, 4 hours) was “can induce effective lysis of the target cells”. As to “CD8SP-FMC63-vL-Streptag-[hTCRb-R79G]-F-P2A-SP-FMC63-vH-Myc4-[hTCRa-S61R]-F-F2A-PAC [SEQ ID NO:938]”, the “NFAT-GFP ASSAY Positive Cell lines: RAJI” value in data set [2] was “RAJI (+/−)”. For “CD8SP-FMC63-vL-V5-[hTCRb-S57C-opt]-F-P2A-SP-FMC63-vH-Myc-[hTCRa-T48C-opt]-F-F2A-PAC [SEQ ID NO:951]”, in data set [1] (E:T 10:1, 4 hours), the “lysis of target cells by increase of GLuc activity (in words)” value is “induced effective target cell lysis; also recorded: Modest cytotoxicity”. As for “CD8SP-FMC63-vL-V5-[hTCRb-WT]-F-P2A-SP-FMC63-vH-Myc-[hTCRa-WT]-F-F2A-PAC [SEQ ID NO:922]”, in data set [2], the “NFAT-GFP ASSAY Positive Cell lines: RAJI” value is recorded as “RAJI (2+)”. Besides, the “lysis of target cells by increase of GLuc activity (in words)” value in data set [1] (E:T 1:1, 96 hours) is on record as “fails to cause significant target cell lysis”; in data set [1] (E:T 10:1, 4 hours) it was “fails to cause significant target cell lysis”. In the case of “CD8SP-FMC63-vL-V5-[mTCRb-opt]-F-P2A-SP-FMC63-vH-Myc-[mTCRa-opt]-F-F2A-PAC [SEQ ID NO:953]”, the “lysis of target cells by increase of GLuc activity (in words)” value in data set [1] (E:T 1:1, 96 hours) is given as “increase in GLuc activity”; in data set [1] (E:T 10:1, 4 hours), “increase in GLuc activity”. Turning to “IgHSP-FMC63-vH-[hTCRb-C57C-opt]-F-P2A-CD8SP-FMC63-VL-MYC-[hTCRa-T48C-opt]-F-F2A-Pac [SEQ ID NO:901]”, in data set [2], the “NFAT-GFP ASSAY Positive Cell lines: NALM6” value is “RAJI(2+), NALM6(2+)” and the “NFAT-GFP ASSAY Positive Cell lines: RAJI” value is recorded as “RAJI(2+), NALM6(2+)”. The “lysis of target cells by increase of GLuc activity (in words)” value in data set [1] (E:T 10:1, 4 hours) was “can also induce effective lysis of the target cells”.
